Experimental data from publication PMC4661883, “Cell-Penetrating Ability of Peptide Hormones: Key Role of Glycosaminoglycans Clustering” (International Journal of Molecular Sciences, 2015).

Key:
[1] = test system: CHO pgs-A-745 cells; experiment: Cellular uptake of fluorescently labelled peptides by flow cytometry, GAGs-deficient CHO pgs-A-745 cells; format: cell-based, Chinese hamster; conditions: 1 µM fluorescently labelled peptide, 1 h at 37 °C
Description: Figure 1 Cellular uptake of cationic peptide hormones and TAT peptide. […] Data represent the relative mean fluorescence intensity (± S.E.M.) of gated cells from at least 3 individual experiments and results are expressed as a percentage of the median fluorescence for 1 μM PACAP38 in CHO K1 cells. Cells were incubated for 1 h at 37 °C in 5% CO2 with fluorescently labelled peptides, washed twice in HBSS, treated with 100 μg/mL heparin for 5 min, detached by trypsin treatment, washed by centrifugation and resuspended in ice-cold sorting buffer before flow cytometry analysis.
Chinese hamster ovary cells K1 (CHO K1; obtained from ATCC, Manassas, VA, USA) and xylosyltransferase deficient cells (CHO pgs-A-745; obtained from ATCC) were maintained in Ham’s F12 medium supplemented with 10% foetal bovine serum (FBS), 2 mM L-glutamine and antibiotic (10,000 UI/mL penicillin, and 10,000 UI/mL streptomycin). […]
For cellular uptake measurement, CHO K1 and CHO pgs-A-745 were seeded in 12-well plates at a density of 30,000 cells/well for 48 h to approximately 75% confluence. […] To confirm that the fluorescence measured by flow cytometry was not associated to non-specific binding of the FITC-peptides at the cell surface, we performed the analysis after treatment with the fluorescent quencher trypan blue. […]

[2] = Heparin affinity chromatography (HiTrap Heparin HP sepharose column, NaCl gradient); format: binding, porcine; conditions: 20 mM phosphate pH 7.4, NaCl gradient
Description: (A) Chromatograms of PACAP38 elution with increasing NaCl concentration on a sepharose heparin column connected to a FPLC Aktapure system.
The relative binding affinity of the peptides for sulfated GAGs was evaluated using a 1 mL HiTrap Heparin HP column packed with sepharose and immobilized heparin from porcine intestinal mucosa (GE Healthcare, Baie-d'Urfé, QC, Canada). The column was connected to a FPLC Aktapure system (GE Healthcare) and equilibrated with phosphate buffer (20 mM, pH 7.4) prior to injection. Five hundred microliters of 0.5 mg/mL peptide solutions were injected at a flow rate of 0.5 mL/min. After injection, the elution consisted of an isocratic step of 5 mL phosphate buffer (20 mM, pH 7.4) followed by a gradient from 0 to 2 M NaCl in phosphate buffer (pH 7.4). Peptide elution was monitored using absorbance at 230 nm.

[3] = test system: CHO K1 cells; experiment: Cellular uptake of fluorescently labelled peptides by flow cytometry, CHO K1 cells; format: cell-based, Chinese hamster; conditions: 1 µM fluorescently-labelled (FITC-Ahx N-terminal) peptide, 1 h at 37 °C, 1% FBS Ham's F12, heparin wash and trypsin, at least 3 experiments
Description: Chinese hamster ovary cells K1 (CHO K1; obtained from ATCC, Manassas, VA, USA) and xylosyltransferase deficient cells [18] (CHO pgs-A-745; obtained from ATCC) were maintained in Ham’s F12 medium supplemented with 10% foetal bovine serum (FBS), 2 mM L-glutamine and antibiotic (10,000 UI/mL penicillin, and 10,000 UI/mL streptomycin). Cells were maintained as a monolayer at 37 °C in a humidified atmosphere of 5% CO2 and 95% air and passaged by trypsinization when the cells reached 70%–80% confluence.

[4] = Heparin clustering measured by turbidity at 400 nm, heparin-into-peptide titration; format: physicochemical; conditions: 1.25 µL aliquots of 100 µM heparin into 1 mL 50 µM peptide, 20 mM phosphate, 100 mM NaCl, pH 7.4
Description: Each peak corresponds to the injection of 1.25 μL of a 100 μM heparin solution (20 mM phosphate, 100 mM NaCl, pH 7.4) into a 1 mL 50 μM peptide solution (20 mM phosphate, 100 mM NaCl, pH 7.4).
The formation of macromolecular GAG-peptide clusters was monitored by measuring the light scattering at 400 nm, as previously described [27, 28], using a 100 Bio Cary UV-visible spectrophotometer (Varian, Malton, ON, Canada). Briefly, for the heparin-into-peptide titration, a 1 cm length quartz cuvette was filled with 1 mL of a 50 μM peptide solution (20 mM phosphate buffer, 100 mM·NaCl, pH 7.4) and 1.25 μL aliquots of a 100 μM heparin solution (20 mM phosphate buffer, 100 mM·NaCl, pH 7.4) were successively added. The solution was gently mixed by vortex and the turbidity at 400 nm was immediately measured. For the peptide-into-heparin titration, a 1 cm length quartz cuvette was filled with 1 mL of a 10 μM heparin solution (20 mM phosphate buffer, 100 mM·NaCl, pH 7.4) and 12.5 μL aliquots of a 200 μM peptide solution (20 mM phosphate buffer, 100 mM·NaCl, pH 7.4) were successively added. The solution was gently mixed by vortex and the turbidity at 400 nm was immediately measured. Data was expressed as solution turbidity at 400 nm as function of peptide/heparin or heparin/peptide molar ratio.

[5] = previously shown; cited from earlier work
Text: This could be related to the fact that arginine has a higher affinity for sulfated GAGs than lysine.

[6] = previously shown; cited from earlier work; remark: listed apart in the source
Text: We recently reported that upon binding to sulfated GAGs, PACAP38 undergoes a random coil-to-α-helix conformational conversion. […] Thus, we evaluated if the lower efficacy of cellular uptake of representative peptides of the secretin/glucagon/GHRH superfamily and of calcitonin could not be ascribed to the incapacity of ...

Sequence | Extent of internalization in CHO pgs-A-745 versus CHO K1 cells (in words) [1] | Relative binding to heparin column (in words) [2] | Cellular uptake, fold lower compared to PACAP38 [3] | Turbidity at 400 nm on titration of heparin into peptide (in words) [4] | NaCl concentration at which TAT is eluted from heparin column [5] | Secondary conformation of TAT upon binding to heparin [6]
CGNLSTCMLGTYTQDFNKFHTFPQTAIGVGAP [Calcitonin] | rather similar | bind weakly to the heparin column | 5- to 10 fold | absence of turbidity | – | –
GRKKRRQRRRPPQ [TAT(48–60), cationic peptide derived from the HIV-1 protein TAT, the control CPP used in this study] | – | – | – | – | around 1.8 M | adopts an α-helical conformation
